In patent US12600720B2, “Modulators of the integrated stress response pathway” (Evotec International GmbH, priority 2020, dated 2026):

Test system: ATF4
Test: HEK-ATF4 High Content Imaging assay (prevention of Tunicamycin induced ISR, ATF4 nucleus/cytoplasm signal ratio)
Format: cell-based
Conditions: Homo sapiens, wild-type HEK293 cells, 6 h incubation, ATF4 immunofluorescence
Protocol: HEK-ATF4 High Content Imaging assay
Example compounds were tested in the HEK-ATF4 High Content Imaging assay to assess their pharmacological potency to prevent Tunicamycin induced ISR. Wild-type HEK293 cells were plated in 384-well imaging assay plates at a density of 12,000 cells per well in growth medium (containing DMEM/F12, 10% FBS, 2 mM L-Glutamine, 100 U/mL Penicillin—100 μg/mL Streptomycin) and incubated at 37° C., 5% CO2. 24 h later, the medium was changed to 50 μL assay medium per well (DMEM/F12, 0.3% FBS, 2 mM L-Glutamine, 100 U/mL Penicillin—100 μg/mL Streptomycin). Example compounds were serially diluted in DMSO, spotted into intermediate plates and prediluted with assay medium containing 3.3 μM Tunicamycin to give an 11-fold excess of final assay concentration. In addition to the example compound testing area, the plates also contained multiples of control wells for assay normalization purposes, wells containing Tunicamycin but no example compounds (High control), as well as wells containing neither example compound nor Tunicamycin (Low control). The assay was started by transferring 5 μL from the intermediate plate into the assay plates, followed by incubation for 6 h at 37° C., 5% CO2. Subsequently, cells were fixed (4% PFA in PBS, 20 min at r.t.) and submitted to indirect ATF4 immunofluorescence staining (primary antibody rabbit anti ATF4, clone D4B8, Cell Signaling Technologies; secondary antibody Alexa Fluor 488 goat anti-rabbit IgG (H+L), Thermofisher Scientific). Nuclei were stained using Hoechst dye (Thermofisher Scientific), and plates were imaged on an Opera Phenix High Content imaging platform equipped with 405 nm and 488 nm excitation. Finally, images were analyzed using script based algorithms. The main readout HEK-ATF4 monitored the ATF4 signal ratio between nucleus and cytoplasm. Tunicamycin induced an increase in the overall ATF4 ratio signal, which was prevented by ISR modulating example compounds. In addition, HEK-CellCount readout was derived from counting the number of stained nuclei corresponding to healthy cells. This readout served as an internal toxicity control.

SMILES	IC50
O=C(COc1ccc(Cl)c(F)c1)N[C@H]1CC[C@H](c2nc3cccc(Cl)c3o2)NC1 [Example 10, N-[(3S,6R)-6-(7-chloro-1,3-benzoxazol-2-yl)piperidin-3-yl]-2-(4-chloro-3-fluorophenoxy)acetamide]	500 to 2000 nM
O=C(COc1ccc(Cl)c(F)c1)N[C@H]1CC[C@H](c2nc3ccc(Cl)cc3o2)NC1 [Example 2, N-[(3S,6R)-6-(6-chloro-1,3-benzoxazol-2-yl)piperidin-3-yl]-2-(4-chloro-3-fluorophenoxy)acetamide]	500 to 2000 nM
O=C(COc1ccc(Cl)c(F)c1)N[C@H]1CC[C@H](c2cn3ccc(C(F)(F)F)cc3n2)NC1 [Example 8, 2-(4-chloro-3-fluoro-phenoxy)-N-[(3S,6R)-6-[7-(trifluoromethyl)imidazo[1,2-a]pyridin-2-yl]-3-piperidyl]acetamide]	2000 to 15000 nM
O=C(COc1ccc(Cl)c(F)c1)N[C@H]1CC[C@H](c2nc3cc(Cl)ccc3o2)NC1 [Example 4, N-[(3S,6R)-6-(5-chloro-1,3-benzoxazol-2-yl)piperidin-3-yl]-2-(4-chloro-3-fluorophenoxy)acetamide]	2000 to 15000 nM
O=C(COc1ccc(Cl)c(F)c1)N[C@H]1CC[C@H](c2nc3ccc(OC(F)F)cc3o2)NC1 [Example 14, 2-(4-chloro-3-fluorophenoxy)-N-[(3S,6R)-6-[6-(difluoromethoxy)-1,3-benzoxazol-2-yl]piperidin-3-yl]acetamide]	500 to 2000 nM
O=C(COc1ccc(Cl)c(F)c1)N[C@H]1CC[C@H](c2nc3ccc(OC(F)(F)F)cc3o2)NC1 [Example 12, 2-(4-chloro-3-fluorophenoxy)-N-[(3S,6R)-6-[6-(trifluoromethoxy)-1,3-benzoxazol-2-yl]piperidin-3-yl]acetamide]	1 to 500 nM

More lines, now with the values ahead:

IC50	SMILES
2000 to 15000 nM	O=C(COc1ccc(Cl)c(F)c1)N[C@H]1CC[C@H](c2cn3cc(C(F)(F)F)ccc3n2)NC1 [Example 6, 2-(4-chloro-3-fluoro-phenoxy)-N-[(3S,6R)-6-[6-(trifluoromethyl)imidazo[1,2-a]pyridin-2-yl]-3-piperidyl]acetamide]
2000 to 15000 nM	O=C(COc1ccc(Cl)c(F)c1)N[C@H]1CC[C@H](c2nc3c(Cl)cccc3o2)NC1 [Example 18, N-[(3S,6R)-6-(4-chloro-1,3-benzoxazol-2-yl)piperidin-3-yl]-2-(4-chloro-3-fluorophenoxy)acetamide]
1 to 500 nM	O=C(COc1ccc(Cl)c(F)c1)N[C@H]1CC[C@H](c2nc3ccc(C(F)(F)F)cc3o2)NC1 [Example 16, 2-(4-chloro-3-fluorophenoxy)-N-[(3S,6R)-6-[6-(trifluoromethyl)-1,3-benzoxazol-2-yl]piperidin-3-yl]acetamide]
